Results on 10 molecules are retold here after US8754242B2, “Herbicides” (Syngenta Crop Protection LLC, priority 2007, dated 2014).

Common to all, as to format: in vivo
Assay [1] has as its system Alopecurus myosuroides (ALOMY). As to the kind of experiment: Test Example 1 pre-emergence herbicidal activity. To be noted: Alopecurus myosuroides, 480 h, rate 250 g/ha, evaluated 20 days later, read-out: Pre-emergence activity ALOMY (100=total damage to plant; 0=no damage to plant). The essentials:
(§1)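 Pots sown in standard soil were sprayed 1 day (pre-emergence) or 10 days (post-emergence) after sowing with an aqueous spray from an acetone/Emulsogen EL/N-methylpyrrolidone-based formulation. Visual damage was scored 20 days (pre) or 15 days (post) later in the greenhouse, 0 = none to 100 = total.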

Assay [2] relates to Avena fatua (AVEFA). As to the kind of experiment: Test Example 1 pre-emergence herbicidal activity. To be noted: rate 250 g/ha, evaluated 20 days later; for pest or weed control at 250 g/ha: Avena fatua, 480 h, read-out: Pre-emergence activity AVEFA (100=total damage to plant; 0=no damage to plant). The essentials: as §1
For assay [3], the system named is Digitaria sanguinalis (DIGSA). As to the kind of experiment: Test Example 1 pre-emergence herbicidal activity. To be noted: Digitaria sanguinalis, 480 h, rate 250 g/ha, evaluated 20 days later, read-out: Pre-emergence activity DIGSA (100=total damage to plant; 0=no damage to plant). The essentials:
as §1

Assay [4] relates to Echinochloa crus-galli (ECHCG). Put plainly: Test Example 1 pre-emergence herbicidal activity. To be noted: Echinochloa crus-galli, 480 h, rate 250 g/ha, evaluated 20 days later, read-out: Pre-emergence activity ECHCG (100=total damage to plant; 0=no damage to plant). In a few lines: as §1
In assay [5] the test system is Lolium perenne (LOLPE). As to the kind of experiment: Test Example 1 pre-emergence herbicidal activity. To be noted: Lolium perenne, 480 h, rate 250 g/ha, evaluated 20 days later, read-out: Pre-emergence activity LOLPE (100=total damage to plant; 0=no damage to plant). In a few lines:
as §1

Assay [6] relates to Setaria faberi (SETFA). As to the kind of experiment: Test Example 1 pre-emergence herbicidal activity. To be noted: Setaria faberi, 480 h, rate 250 g/ha, evaluated 20 days later, read-out: Pre-emergence activity SETFA (100=total damage to plant; 0=no damage to plant). The essentials:
as §1

Assay [7] concerns Alopecurus myosuroides (ALOMY). Put plainly: Test Example 1 post-emergence herbicidal activity. To be noted: 360 h, rate 125 g/ha, evaluated 15 days later, read-out: Post-emergence activity ALOMY (100=total damage to plant; 0=no damage to plant). The essentials: as §1
Assay [8] relates to Avena fatua (AVEFA). Put plainly: Test Example 1 post-emergence herbicidal activity. To be noted: 360 h, rate 125 g/ha, evaluated 15 days later, read-out: Post-emergence activity AVEFA (100=total damage to plant; 0=no damage to plant). In a few lines: as §1
Assay [9] concerns Digitaria sanguinalis (DIGSA). Put plainly: Test Example 1 post-emergence herbicidal activity. To be noted: rate 125 g/ha, evaluated 15 days later; for pest or weed control at 125 g/ha: 360 h, read-out: Post-emergence activity DIGSA (100=total damage to plant; 0=no damage to plant). The essentials:
as §1

The subject of assay [10] is Echinochloa crus-galli (ECHCG). As to the kind of experiment: Test Example 1 post-emergence herbicidal activity. To be noted: 360 h, rate 125 g/ha, evaluated 15 days later, read-out: Post-emergence activity ECHCG (100=total damage to plant; 0=no damage to plant). The essentials: as §1
For assay [11], the system named is Lolium perenne (LOLPE). Put plainly: Test Example 1 post-emergence herbicidal activity. To be noted: 360 h, rate 125 g/ha, evaluated 15 days later, read-out: Post-emergence activity LOLPE (100=total damage to plant; 0=no damage to plant). The essentials:
as §1

In assay [12] the test system is Setaria faberi (SETFA). Put plainly: Test Example 1 post-emergence herbicidal activity. To be noted: 360 h, rate 125 g/ha, evaluated 15 days later, read-out: Post-emergence activity SETFA (100=total damage to plant; 0=no damage to plant). In a few lines: as §1

As for `CCc1cc(C)cc(CC)c1C1=C(O)[C@H]2[C@@H](C1=O)[C@@H]1CC[C@H]2O1` [Example T10], the pest or weed control at 250 g/ha in assay [1] is 80%; in [3], 80%; in assay [4] it was 90%; with Lolium perenne (LOLPE) [5] it was 100%; with Setaria faberi (SETFA) [6], 80%. For the same molecule, the “Pre-emergence activity AVEFA (100=total damage to plant; 0=no damage to plant)” value with Avena fatua (AVEFA) [2] is 70. Further, the pest or weed control at 125 g/ha in assay [7] was 70%; in the assay on Avena fatua (AVEFA) [8], 70%; in assay [10] it was 80%; with Lolium perenne (LOLPE) [11], 80%; in the assay on Setaria faberi (SETFA) [12] it was 80%. In assay [9], the “Post-emergence activity DIGSA (100=total damage to plant; 0=no damage to plant)” value was determined as 50.
For the molecule `C#CC1=C[C@@H]2O[C@H]1[C@H]1C(O)=C(c3c(CC)cc(C)cc3CC)C(=O)[C@H]12` [Example T12], the pest or weed control at 250 g/ha worked out at 10% in assay [1]; 10% with Avena fatua (AVEFA) [2]; 40% in [3]; 0% in assay [4]; 40% in the assay on Lolium perenne (LOLPE) [5]; 40% in the assay on Setaria faberi (SETFA) [6]. Further, the pest or weed control at 125 g/ha is 70% in [7]; 50% in the assay with Avena fatua (AVEFA) [8]; 70% in [9]; 70% in assay [10]; 10% in the assay with Lolium perenne (LOLPE) [11]; 70% with Setaria faberi (SETFA) [12].
For the molecule `CCc1cc(C)cc(CC)c1C1=C(O)[C@H]2[C@@H](C1=O)[C@@H]1CC[C@@]2(CO)O1` [Example T14], the pest or weed control at 250 g/ha in assay [1] came to 90%; in the assay with Avena fatua (AVEFA) [2] it was 90%; in assay [3], 70%; in assay [4], 90%; in the assay with Lolium perenne (LOLPE) [5], 100%; in the assay on Setaria faberi (SETFA) [6], 100%. The pest or weed control at 125 g/ha in assay [7] came to 80%; in the assay with Avena fatua (AVEFA) [8], 80%; in [9], 90%; in [10] it was 100%; in the assay with Lolium perenne (LOLPE) [11] it was 80%; in the assay on Setaria faberi (SETFA) [12], 100%.
With `CCC1=NOC2C1[C@@H]1O[C@H]2[C@H]2C(O)=C(c3c(CC)cc(C)cc3CC)C(=O)[C@H]21` (stereo partly drawn) [Example T15], the pest or weed control at 250 g/ha in assay [1] is 40%; in the assay with Avena fatua (AVEFA) [2], 20%; in assay [3], 30%; in assay [4] it was 80%; with Lolium perenne (LOLPE) [5], 40%; in the assay with Setaria faberi (SETFA) [6], 60%. Also, the pest or weed control at 125 g/ha in [7] is 50%; in the assay on Avena fatua (AVEFA) [8], 40%; in assay [9], 80%; in [10] it was 80%; in the assay with Lolium perenne (LOLPE) [11] it was 40%; in the assay with Setaria faberi (SETFA) [12], 50%.
As for `CCc1cc(C)cc(CC)c1C1=C(O)[C@H]2[C@@H](C1=O)[C@@H]1CC[C@@]2(COC)O1` [Example T17], the pest or weed control at 250 g/ha in assay [1] is 100%; with Avena fatua (AVEFA) [2], 90%; in assay [3], 100%; in assay [4] it was 100%; in the assay on Lolium perenne (LOLPE) [5], 100%; in the assay with Setaria faberi (SETFA) [6], 100%. Also, the pest or weed control at 125 g/ha in assay [7] is 100%; in the assay on Avena fatua (AVEFA) [8], 100%; in [9], 100%; in assay [10], 100%; in the assay on Lolium perenne (LOLPE) [11] it was 90%; in the assay on Setaria faberi (SETFA) [12], 100%.
In the case of `CCOC[C@]12CC[C@H](O1)[C@@H]1C(=O)C(c3c(CC)cc(C)cc3CC)=C(O)[C@@H]12` [Example T18], the pest or weed control at 250 g/ha (in assay [1]; in the assay with Avena fatua (AVEFA) [2]; in [3]; in [4]; in the assay on Lolium perenne (LOLPE) [5]; in the assay with Setaria faberi (SETFA) [6]) was 100% each time. For the same molecule, the pest or weed control at 125 g/ha in assay [7] was found to be 100%; with Avena fatua (AVEFA) [8], 100%; in [9], 100%; in assay [10], 100%; in the assay with Lolium perenne (LOLPE) [11], 80%; in the assay on Setaria faberi (SETFA) [12], 100%.
For `CCOCOC[C@]12CC[C@H](O1)[C@@H]1C(=O)C(c3c(CC)cc(C)cc3CC)=C(O)[C@@H]12` [Example T19], the pest or weed control at 250 g/ha came out at 100% in [1]; 90% with Avena fatua (AVEFA) [2]; 90% in assay [3]; 100% in [4]; 100% with Lolium perenne (LOLPE) [5]; 100% with Setaria faberi (SETFA) [6]. The pest or weed control at 125 g/ha is 100% in assay [7]; 100% in the assay with Avena fatua (AVEFA) [8]; 90% in assay [9]; 100% in assay [10]; 90% in the assay on Lolium perenne (LOLPE) [11]; 100% with Setaria faberi (SETFA) [12].
For `CCCNC(=O)OC[C@]12CC[C@H](O1)[C@@H]1C(=O)C(c3c(CC)cc(C)cc3CC)=C(O)[C@@H]12` [Example T21], the pest or weed control at 250 g/ha in assay [1] stood at 90%; in the assay with Avena fatua (AVEFA) [2] it was 30%; in [3], 10%; in [4] it was 80%; with Lolium perenne (LOLPE) [5], 80%; with Setaria faberi (SETFA) [6], 70%. The pest or weed control at 125 g/ha turned out to be 90% in assay [7]; 70% in the assay with Avena fatua (AVEFA) [8]; 30% in [9]; 100% in [10]; 70% in the assay on Lolium perenne (LOLPE) [11]; 60% with Setaria faberi (SETFA) [12].
In the case of `CCc1cc(C)cc(CC)c1C1=C(O)[C@H]2[C@@H](C1=O)[C@@H]1CC[C@@]2(COCC#N)O1` [Example T27], the pest or weed control at 250 g/ha was found to be 70% in assay [1]; 70% in the assay with Avena fatua (AVEFA) [2]; 90% in [3]; 100% in [4]; 70% with Lolium perenne (LOLPE) [5]; 100% in the assay with Setaria faberi (SETFA) [6]. The pest or weed control at 125 g/ha in [7] amounted to 100%; in the assay with Avena fatua (AVEFA) [8], 90%; in assay [9], 100%; in assay [10], 100%; with Lolium perenne (LOLPE) [11], 80%; in the assay with Setaria faberi (SETFA) [12], 100%.
As for `Cc1cc(C)c(C2=C(O)[C@H]3[C@@H](C2=O)[C@]2(C)C=C[C@@]3(C)O2)c(C)c1` [Example T34], the pest or weed control at 250 g/ha in [1] stood at 70%; in the assay on Avena fatua (AVEFA) [2] it was 30%; in assay [3], 60%; in assay [4], 40%; with Lolium perenne (LOLPE) [5] it was 60%; in the assay with Setaria faberi (SETFA) [6], 80%. For the same molecule, the pest or weed control at 125 g/ha was 40% in assay [7]; 30% in the assay on Avena fatua (AVEFA) [8]; 80% in assay [9]; 80% in [10]; 30% in the assay with Lolium perenne (LOLPE) [11]; 80% in the assay on Setaria faberi (SETFA) [12].
